{
  "source": "patent US11389395B2",
  "about": "“Encapsulation of microbubbles within the aqueous core of microcapsules” (DREXEL UNIVERSITY, priority 2009, dated 2022)",
  "key": {"[1]": {"test": "Survival of microbubbles made at different processing temperatures", "type": "physicochemical", "conditions": "formulations included 5 mol % PEG6000MS; for survival of microbubbles, 7° C.: processing temperature 7° C.; for survival of microbubbles, 37° C.: processing temperature 37° C.; for survival of microbubbles, 60° C.: processing temperature 60° C.", "description": "Table 1 lists three phospholipid species, along with their gel transition temperatures, and the results of experiments attempting to make stable microbubbles with these species at different temperatures. All microbubble formulations included 5 mol % PEG6000MS.\nIn all cases in which the processing temperature was below the gel transition temperature, irrespective of the phospholipid identity, microbubble synthesis was feasible. Conversely, microbubble synthesis at temperatures greater than the gel transition temperature was not feasible, regardless of which phospholipid was used."}, "[2]": {"test": "Microbubble growth on heating above the phospholipid chain melting temperature", "type": "physicochemical", "conditions": "microbubbles made at 7° C., heated to 37° C.", "description": "Use of a gel-phase lipid is required to prevent gas from escaping the microbubble. […] Indeed, these microbubbles expanded so as to fill the capillary in which they were contained and therefore became nonspherical, taking on the geometry of the capillary itself. […] Such growth may have resulted from simple expansion of individual microbubbles or by inward diffusion of gas."}},
  "data": [
    {"smiles": "CCCCCCCCCCCCCC(=O)OC[C@H](COP(=O)([O-])OCC[N+](C)(C)C)OC(=O)CCCCCCCCCCCCC", "note": "[DMPC, dimyristoylphosphatidylcholine]", "values": [
      {"measurement": "survival of microbubbles, 7° C.", "setting": "[1]", "value": "Yes"},
      {"measurement": "survival of microbubbles, 37° C.", "setting": "[1]", "value": "No"},
      {"measurement": "survival of microbubbles, 60° C.", "setting": "[1]", "value": "No"},
      {"measurement": "microbubble growth upon heating", "setting": "[2]", "value": "grew spontaneously"}
    ]},
    {"smiles": "CCCCCCCCCCCCCCCCCC(=O)OC[C@H](COP(=O)([O-])OCC[N+](C)(C)C)OC(=O)CCCCCCCCCCCCCCCCC", "note": "[DSPC, 1,2-distearoyl-sn-glycero-3-phosphocholine]", "values": [
      {"measurement": "survival of microbubbles, 7° C.", "setting": "[1]", "value": "Yes"},
      {"measurement": "survival of microbubbles, 37° C.", "setting": "[1]", "value": "Yes"},
      {"measurement": "survival of microbubbles, 60° C.", "setting": "[1]", "value": "No"},
      {"measurement": "microbubble growth upon heating", "setting": "[2]", "value": "No such growth was observed"}
    ]}
  ]
}
